Tests used:
rat D1 receptor = biological target: T1, rat D1 receptor (Rattus norvegicus, UniProt P18901); test: Radioligand binding [3H]SCH23390, rat brain tissue
T1 construct: source of native rat D1 receptor protein; from tissue; host or cells: rat striatum (methods) / rat brain cortical membranes
Method: Rat brain cortical membranes were used as source of native rat D1 receptor protein, and human D2 receptor was recombinantly expressed in HEK293 cells.
Rat striatum tissue was thawed in 50 volumes of ice-cold 50 mM potassium phosphate buffer, pH 7.4, homogenized and centrifuged at 20,000× g for 20 min. The resulting pellet was resuspended in the same quantity of the buffer and centrifuged again for 20 min. Binding experiments were conducted in 96-well microplates in a total volume of 250 μL of appropriate buffers. Reaction mix included 50 μL solution of test compound, 50 μL of radioligand, and 150 μL of tissue suspension (3 mg/mL). [^3H]SCH23390 (spec. act. 81.9 Ci/mmol, PerkinElmer, NET 930) was used for labeling the D1-receptor. For measuring unspecific binding, cis(Z)flupentixol—5 μM was applied. Samples were incubated at 30 °C for 60 min. The incubation was terminated by rapid filtration over glass fiber filters GF/B using a Harvester (PerkinElmer, USA). The radioactivity was measured in MicroBeta TriLux 1450—liquid scintillation counter (PerkinElmer). Each compound was tested in a screening assay in duplicate at final concentrations of 1 µM. Results were expressed as a percent of inhibition of specific binding.

human PDE4B1 = biological target: T2, human PDE4B1 (Homo sapiens, UniProt Q07343); test: PDElight HTS cAMP phosphodiesterase assay, PDE4B1; format: biochemical
T2 construct: purchased BPS Biosciences
Method: Further biological evaluation of the presented compound library was performed determining inhibitory potencies against selected human PDE isoforms, namely, PDE4 and PDE10 (for results see Table 3).
Tested and reference compounds were dissolved in dimethyl sulfoxide (DMSO) at a concentration of 10 mM and further diluted in assay buffer (10 mM Tris-HCl, 10 mM magnesium chloride and 0.05% Tween-20; pH 7.4). Inhibition of human PDE10A and 4B1 was measured using PDElight HTS cAMP phosphodiesterase assay kit (Lonza, Basel, Switzerland) according to manufacturer’s recommendations. Then, 10 ng of PDE10A and 5 ng of PDE4B1 (BPS Biosciences, San Diego, CA, USA) in appropriate buffer was incubated with reference and tested compound for 20 min. […] Then PDELight AMP Detection Reagent was added and incubated 10 min. All reactions were carried out at 37 °C in 96 white-walled, half-area-well plates (PerkinElmer). Luminescence was measured in a multifunction plate reader (POLARstar Omega, BMG Labtech, Ortenberg, Germany). The percentage of inhibition and IC50s were computed using GraphPad Prism Version 6.0 software.

human A2B (hA2B) ARs = biological target: T3, human A2B (hA2B) ARs (Homo sapiens, UniProt P29275); test: Radioligand binding [3H]PSB-603, CHO cell membranes; conditions: CHO cell membranes; read-out: hA2B [3H]PSB-603 Ki ± SEM
T3 construct: expressed in transfected cells; host or cells: CHO cells (membranes)
T3 sequence (P29275 1-332): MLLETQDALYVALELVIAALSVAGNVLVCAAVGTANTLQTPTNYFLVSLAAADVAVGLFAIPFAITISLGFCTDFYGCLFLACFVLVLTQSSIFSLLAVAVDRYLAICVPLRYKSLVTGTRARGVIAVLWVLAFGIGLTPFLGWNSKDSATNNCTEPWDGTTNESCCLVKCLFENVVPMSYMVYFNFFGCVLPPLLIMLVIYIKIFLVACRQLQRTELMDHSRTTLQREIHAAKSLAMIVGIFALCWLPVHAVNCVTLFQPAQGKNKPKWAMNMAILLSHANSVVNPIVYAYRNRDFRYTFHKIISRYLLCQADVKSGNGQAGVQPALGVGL
Method: The final compounds were tested in radioligand binding assays to evaluate their affinity for all four ARs subtypes (see Table 2). Rat brain cortical membrane preparations were used as a source of rat A1 (rA1) ARs, and rat brain striatal membrane preparations served as a source of rat A2A (rA2A) ARs. For A2B- and A3AR assays, membrane preparations of Chinese hamster ovary (CHO) cells recombinantly expressing either human A2B (hA2B) or human A3 (hA3) ARs were employed.
Adenosine receptor radioligand binding assays were performed as previously described using rat brain cortical membrane preparations for A1 and rat brain striatal membrane preparations for A2A AR assays. Frozen rat brains (unstripped) were obtained from Pel Freez, Rogers, AR, USA. For assays at human AR subtypes, cell membranes of CHO cells recombinantly expressing the respective receptor were used. The following compounds were employed as radioligands: A1: [^3H]2-chloro-N^6-cyclopentyladenosine ([^3H]CCPA); A2A: [^3H]3-(3-hydroxypropyl)-7-methyl-8-(m-methoxystyryl)-1-propargylxanthine ([^3H]MSX-2); A2B: [^3H]8-(4-(4-(4-chlorophenyl)piperazine-1-sulfonyl)phenyl)-1-propylxanthine ([^3H]PSB-603); A3: [^3H]phenyl-8-ethyl-4-methyl-(8R)-4,5,7,8-tetrahydro-1H-imidazo[2,1-i]purine-5-one ([^3H]PSB-11). Initially, a single high concentration of compound was tested (1 µM). For potent compounds, full concentration–inhibition curves were determined using six to ten different concentrations of test compound spanning three orders of magnitude. At least three independent experiments were performed. Data were analyzed using GraphPad PRISM program version 4.0 or higher (Graph Pad, San Diego, CA, USA).

T2 sequence (Q07343 whole entry): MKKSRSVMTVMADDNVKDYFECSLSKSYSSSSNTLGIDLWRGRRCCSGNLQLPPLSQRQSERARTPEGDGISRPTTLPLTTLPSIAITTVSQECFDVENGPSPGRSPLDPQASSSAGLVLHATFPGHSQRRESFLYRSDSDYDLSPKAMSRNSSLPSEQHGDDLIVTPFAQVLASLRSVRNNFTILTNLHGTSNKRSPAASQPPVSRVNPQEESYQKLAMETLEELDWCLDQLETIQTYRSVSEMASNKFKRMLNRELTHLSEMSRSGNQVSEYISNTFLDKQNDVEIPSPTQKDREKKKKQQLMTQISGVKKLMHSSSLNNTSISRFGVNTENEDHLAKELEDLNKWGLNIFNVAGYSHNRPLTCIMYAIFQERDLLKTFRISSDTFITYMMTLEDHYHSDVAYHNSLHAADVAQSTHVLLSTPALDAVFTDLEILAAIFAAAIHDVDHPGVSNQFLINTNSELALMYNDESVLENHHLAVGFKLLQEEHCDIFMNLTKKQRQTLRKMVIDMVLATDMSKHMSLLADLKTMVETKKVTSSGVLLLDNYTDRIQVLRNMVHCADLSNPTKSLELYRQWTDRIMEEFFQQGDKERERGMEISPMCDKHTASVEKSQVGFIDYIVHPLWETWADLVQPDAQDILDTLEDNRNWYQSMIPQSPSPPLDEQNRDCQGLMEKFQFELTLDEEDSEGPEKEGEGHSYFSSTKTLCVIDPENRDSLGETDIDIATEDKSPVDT
T1 sequence (P18901 whole entry): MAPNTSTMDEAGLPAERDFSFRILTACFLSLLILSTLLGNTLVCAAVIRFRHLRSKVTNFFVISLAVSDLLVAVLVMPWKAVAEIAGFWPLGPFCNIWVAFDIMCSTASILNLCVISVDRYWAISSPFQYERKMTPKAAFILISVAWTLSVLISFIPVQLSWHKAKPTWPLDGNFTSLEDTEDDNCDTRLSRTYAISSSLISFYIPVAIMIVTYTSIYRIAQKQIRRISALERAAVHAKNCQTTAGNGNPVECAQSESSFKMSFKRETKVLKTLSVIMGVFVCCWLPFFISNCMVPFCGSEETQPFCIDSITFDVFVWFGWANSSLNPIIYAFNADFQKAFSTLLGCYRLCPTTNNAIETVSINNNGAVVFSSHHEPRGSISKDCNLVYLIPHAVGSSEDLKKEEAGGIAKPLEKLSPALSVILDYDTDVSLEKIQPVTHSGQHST

Structure (SMILES): CCCCn1c(=O)c2c(nc3n2CCCN3CCc2ccc(O)c(O)c2)n(CCCC)c1=O [Compound 22, 1,3-Dibutyl-9-(3,4-dihydroxyphenethyl)-6,7,8,9-tetrahydropyrimido[2,1-f]purine-2,4(1H,3H)-dione]
- Ki (rat D1 receptor; native rat D1 receptor, read-out: rD1 [3H]SCH23390 Ki ± SEM): > 1000 nM
- inhibition at 1 µM (rat D1 receptor; read-out: rD1 [3H]SCH23390 % inhibition ± SEM at 1 µM): 11%
- inhibition at 10 µM (human PDE4B1; read-out: PDE 4B1 % Inhibition ± SEM at 10 µM): 24%
- IC50 (human PDE4B1; read-out: PDE 4B1 IC50 ± SEM): > 10000 nM
- Ki (human A2B (hA2B) ARs): 175 ± 21 nM

— article PMC10377586 (Biomolecules, 2023)
